In US20230027361A1, “METTL3 MODULATORS” (priority 2019, published 2023) one finds IC50 data, which are given here for 13 compounds.

Where two headings read alike, the source gives them in different places.

The target in one experiment is METTL3/METTL14 (Homo sapiens, UniProt Q86U44). The experiment is described as follows: METTL3-14 Standard Enzyme Assay (METTL3 biochemical assay). An outline of the steps: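 Tritium transfer from ³H-SAM (100 nM) to biotinylated RNA (100 nM) captured on streptavidin flashplates and counted by scintillation. Enzyme complex (2.5 nM) with compound, 5 min preincubation, 30 min reaction at ambient temperature, HEPES pH 7.5 buffer, stopped by excess unlabeled SAM.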
Sequence of METTL3/METTL14 (Q86U44 whole entry, species assumed): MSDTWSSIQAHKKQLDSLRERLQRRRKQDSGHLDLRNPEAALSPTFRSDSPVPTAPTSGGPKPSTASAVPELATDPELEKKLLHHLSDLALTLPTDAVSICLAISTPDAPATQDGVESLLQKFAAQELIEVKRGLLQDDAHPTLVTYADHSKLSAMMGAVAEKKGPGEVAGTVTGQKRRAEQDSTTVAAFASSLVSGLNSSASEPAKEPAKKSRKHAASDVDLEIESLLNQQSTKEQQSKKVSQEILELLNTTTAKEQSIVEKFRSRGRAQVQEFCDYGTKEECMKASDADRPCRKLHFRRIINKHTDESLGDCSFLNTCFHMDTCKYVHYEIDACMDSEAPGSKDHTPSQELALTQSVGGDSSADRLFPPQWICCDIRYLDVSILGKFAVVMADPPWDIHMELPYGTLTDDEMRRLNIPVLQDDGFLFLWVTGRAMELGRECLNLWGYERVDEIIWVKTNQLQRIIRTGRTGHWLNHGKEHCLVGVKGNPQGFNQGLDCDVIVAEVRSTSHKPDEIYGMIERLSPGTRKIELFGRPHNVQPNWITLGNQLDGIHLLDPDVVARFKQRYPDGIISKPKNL
Sequence of METTL3/METTL14 (Q9HCE5 whole entry partner, species assumed): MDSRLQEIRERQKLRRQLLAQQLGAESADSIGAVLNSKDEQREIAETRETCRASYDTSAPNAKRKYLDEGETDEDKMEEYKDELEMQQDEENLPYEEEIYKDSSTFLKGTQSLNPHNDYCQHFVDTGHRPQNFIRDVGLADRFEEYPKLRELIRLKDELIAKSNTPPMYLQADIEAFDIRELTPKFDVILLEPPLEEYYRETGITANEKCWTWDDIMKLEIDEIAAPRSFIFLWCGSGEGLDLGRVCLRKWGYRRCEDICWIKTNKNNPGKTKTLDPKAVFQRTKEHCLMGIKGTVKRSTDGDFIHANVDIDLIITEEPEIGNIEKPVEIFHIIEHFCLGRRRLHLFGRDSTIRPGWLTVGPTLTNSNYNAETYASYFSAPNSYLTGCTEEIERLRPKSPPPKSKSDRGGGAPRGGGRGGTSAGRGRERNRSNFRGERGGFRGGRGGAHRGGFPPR

Another experiment has as its target T1, METTL16 (Homo sapiens, UniProt Q86W50).
T1 sequence (Q86W50 1-562): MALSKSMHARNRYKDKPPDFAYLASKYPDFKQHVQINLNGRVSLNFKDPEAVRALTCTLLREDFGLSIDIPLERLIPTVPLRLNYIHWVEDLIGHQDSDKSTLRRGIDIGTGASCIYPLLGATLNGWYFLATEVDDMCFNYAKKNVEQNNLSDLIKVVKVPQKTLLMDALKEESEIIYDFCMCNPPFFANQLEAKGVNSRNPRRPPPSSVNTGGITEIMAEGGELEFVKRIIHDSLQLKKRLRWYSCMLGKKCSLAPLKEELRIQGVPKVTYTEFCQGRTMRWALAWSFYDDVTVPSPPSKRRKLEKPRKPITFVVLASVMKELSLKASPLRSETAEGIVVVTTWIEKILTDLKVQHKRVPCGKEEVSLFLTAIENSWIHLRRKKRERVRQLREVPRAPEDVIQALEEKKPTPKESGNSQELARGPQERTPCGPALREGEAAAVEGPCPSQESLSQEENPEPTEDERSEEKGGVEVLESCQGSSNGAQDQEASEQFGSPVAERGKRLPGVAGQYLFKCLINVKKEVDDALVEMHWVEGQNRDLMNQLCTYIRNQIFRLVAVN
The experiment is described as follows: METTL16 Assay (METTL16 biochemical assay). To be noted: read-out: METTL16 IC50. As for the experimental part:
Assays were performed in a 25 μl-volume in 384-well V-bottom polypropylene microplates (Greiner Bio-One, cat. No. 781280) at ambient temperature. Optimized 1× assay buffer was 20 mM HEPES pH 7.5, 50 mM KCl, 1 mM DTT, 0.01% Tween, 0.01% BSG, 0.004 U/μl RNAseOUT (cat. No. 10777019, ThermoFisher Scientific, Waltham, Mass.). For compound screening METTL16 (final concentration, f.c.=100 nM) was added using a Multidrop Combi (ThermoFisher Scientific, Waltham, Mass.) and preincubated for 5 min. Reactions were started by adding 3′ biotinylated RNA ([…]-biotin) (f.c.=50 nM), 3H-SAM (f.c.=200 nM) and non-radiolabeled SAM (f.c.=800 nM) substrates. Reactions proceeded for 20 minutes and were quenched with excess non-radioactive SAM (f.c.=100 μM). The reactions were then transferred to streptavidin-coated flashplates and incubated for 2 hours at 25° C. Following two washing cycles with 0.1% Tween-20, the plates were sealed and read on a TopCount (PerkinElmer, Waltham, Mass.) plate-based scintillation counter. For determination of kinetic parameters, reaction times were optimized so that measurements were taken during the initial velocity phase of the reaction.

For the next experiment, the target named is PRMT5-MEP50 (Homo sapiens, UniProt O14744). As to the kind of experiment: PRMT5 Assay (PRMT5 biochemical assay). An outline of the steps:
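Radiometric methyltransferase read-out: after 60 min reaction, excess unlabelled SAM (15 μM) stops turnover and biotinylated H4 peptide (100 nM) carrying 3H-methyl from 250 nM 3H-SAM is captured on streptavidin flashplates (2 h, 25° C) for scintillation counting. Enzyme, 2.5 nM PRMT5-MEP50, was preincubated 5 min with compound in pH 8.0 Tris buffer with DTT and Tween.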

In a further experiment the target is METTL1/WDR4 (Homo sapiens, UniProt Q9UBP6). The experiment is described as follows: METTL1 Assay (METTL1 biochemical assay). To be noted: read-out: METTL1 IC50; METTL1 biochemical assay. An outline of the steps:
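Radiometric methyltransfer by METTL1/WDR4 (6.25 nM f.c., 5 min preincubation) at ambient temperature in HEPES pH 7.5, KCl, MgCl2, DTT; started with 25 nM 3′-biotinylated RNA and 60 nM 3H-SAM, run 20 min, quenched with 15 μM cold SAM. Product captured on streptavidin flashplates (2 h, 25° C), counted by scintillation.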

Where [1] appears, read: METTL3 biochemical assay; read-out: METTL3 IC50.
Where [2] appears, read: PRMT5 biochemical assay; read-out: PRMT5 IC50.

Sequence of PRMT5-MEP50 (O14744 whole entry): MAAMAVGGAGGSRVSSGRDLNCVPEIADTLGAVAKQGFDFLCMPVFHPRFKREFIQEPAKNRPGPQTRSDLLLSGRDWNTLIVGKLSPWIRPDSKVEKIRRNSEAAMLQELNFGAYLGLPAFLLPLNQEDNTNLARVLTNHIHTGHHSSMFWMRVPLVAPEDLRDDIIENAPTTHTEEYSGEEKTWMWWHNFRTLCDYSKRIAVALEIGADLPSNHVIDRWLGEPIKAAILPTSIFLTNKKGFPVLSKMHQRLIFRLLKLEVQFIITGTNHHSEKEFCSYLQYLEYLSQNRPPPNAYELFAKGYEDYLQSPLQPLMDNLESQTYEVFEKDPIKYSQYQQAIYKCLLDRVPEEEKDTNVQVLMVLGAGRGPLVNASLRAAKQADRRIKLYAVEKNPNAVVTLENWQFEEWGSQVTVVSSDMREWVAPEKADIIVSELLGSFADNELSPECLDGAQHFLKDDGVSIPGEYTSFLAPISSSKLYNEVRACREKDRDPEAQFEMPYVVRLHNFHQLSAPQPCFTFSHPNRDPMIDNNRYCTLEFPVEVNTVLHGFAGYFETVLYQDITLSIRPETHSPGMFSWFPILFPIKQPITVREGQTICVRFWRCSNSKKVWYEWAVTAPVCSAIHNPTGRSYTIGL
Sequence of PRMT5-MEP50 (Q9BQA1 whole entry partner): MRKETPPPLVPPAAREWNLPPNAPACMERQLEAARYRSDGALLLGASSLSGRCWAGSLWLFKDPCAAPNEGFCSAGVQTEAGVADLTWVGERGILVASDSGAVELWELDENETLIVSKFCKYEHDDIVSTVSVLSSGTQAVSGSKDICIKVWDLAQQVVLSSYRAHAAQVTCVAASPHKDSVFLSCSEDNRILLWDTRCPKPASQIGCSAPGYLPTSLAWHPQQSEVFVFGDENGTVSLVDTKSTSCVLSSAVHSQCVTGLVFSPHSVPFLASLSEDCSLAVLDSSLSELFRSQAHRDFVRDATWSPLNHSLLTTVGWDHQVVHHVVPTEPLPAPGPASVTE
Sequence of METTL1/WDR4 (Q9UBP6 whole entry, species assumed): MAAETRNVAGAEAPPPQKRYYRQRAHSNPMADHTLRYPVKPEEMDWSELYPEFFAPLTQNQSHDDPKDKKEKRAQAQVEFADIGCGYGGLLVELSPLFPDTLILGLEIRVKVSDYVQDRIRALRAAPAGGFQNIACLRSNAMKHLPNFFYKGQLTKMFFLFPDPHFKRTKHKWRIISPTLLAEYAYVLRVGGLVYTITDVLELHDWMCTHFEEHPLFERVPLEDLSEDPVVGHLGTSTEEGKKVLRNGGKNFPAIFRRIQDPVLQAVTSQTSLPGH
Sequence of METTL1/WDR4 (P57081 whole entry partner, species assumed): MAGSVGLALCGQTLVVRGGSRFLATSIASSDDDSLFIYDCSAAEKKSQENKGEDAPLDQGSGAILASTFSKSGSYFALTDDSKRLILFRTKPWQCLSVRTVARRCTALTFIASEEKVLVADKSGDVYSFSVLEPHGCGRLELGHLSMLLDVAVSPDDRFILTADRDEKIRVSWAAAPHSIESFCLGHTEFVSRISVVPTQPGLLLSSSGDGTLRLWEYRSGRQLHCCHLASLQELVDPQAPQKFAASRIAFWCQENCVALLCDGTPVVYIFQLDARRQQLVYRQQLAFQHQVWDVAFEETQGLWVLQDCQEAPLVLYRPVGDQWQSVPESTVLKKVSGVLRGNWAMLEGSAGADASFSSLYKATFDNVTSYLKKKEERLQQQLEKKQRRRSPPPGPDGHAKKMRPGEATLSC

With `CNc1ccc2ccc(OC[C@H]3O[C@@H](n4cc(-c5cnn(C)c5)c5c(N)ncnc54)[C@@H](F)[C@@H]3O)cc2n1` [I-11], the IC50 (as a rule, the midpoint of a concentration-inhibition curve) on METTL3/METTL14 (read-out: METTL3 IC50; METTL3 biochemical assay) is 0.01 to 0.1 µM; at METTL16 it was greater than 1 µM; at PRMT5-MEP50 (read-out: PRMT5 IC50; PRMT5 biochemical assay), 0.1 to 1 µM.
As for `Nc1cc(C2CC2)nc2cc(OC[C@H]3O[C@@H](n4cc(Br)c5c(N)ncnc54)[C@@H](F)[C@@H]3O)ccc12` [I-14], the IC50 on METTL3/METTL14 (setting [1]) is 0.01 to 0.1 µM; on METTL16, greater than 1 µM; on PRMT5-MEP50 (setting [2]), 0.1 to 1 µM.
The matching figures for `Cc1cc(N)c2ccc(OC[C@H]3O[C@@H](n4cc(C5CCCC5)c5c(N)ncnc54)[C@H](O)[C@@H]3O)cc2n1` [I-16]: 0.01 to 0.1 µM, greater than 1 µM and 0.01 to 0.1 µM.
The matching figures for `CNc1ccc2ccc(OC[C@H]3O[C@@H](n4cc(C5CCN(C)C5)c5c(N)ncnc54)[C@@H](F)[C@@H]3O)cc2n1` (stereo partly shown) [I-17]: 0.01 to 0.1 µM, greater than 1 µM and 0.1 to 1 µM.
In the case of `CCc1cc(N)c2ccc(OC[C@H]3O[C@@H](n4cc(Br)c5c(N)ncnc54)[C@@H](F)[C@@H]3O)cc2n1` [I-18], the concentration for half-maximal inhibition (IC50) on METTL3/METTL14 (setting [1]) was 0.01 to 0.1 µM; at METTL16 it was greater than 1 µM; at PRMT5-MEP50 (setting [2]), 0.1 to 1 µM.
On to `Nc1nc2ccc(OC[C@H]3O[C@@H](n4cc(Br)c5c(N)ncnc54)[C@@H](F)[C@@H]3O)cc2[nH]1` [I-21], for which the IC50 was 0.1 to 1 µM at METTL3/METTL14 (setting [1]), greater than 1 µM on METTL1/WDR4, greater than 1 µM at METTL16 and 0.01 to 0.1 µM at PRMT5-MEP50 (setting [2]).
With `CNc1ccc2ccc(OC[C@H]3O[C@@H](n4cc(C5CCN(C)CC5)c5c(N)ncnc54)[C@@H](F)[C@@H]3O)cc2n1` [I-24], the IC50 is 0.01 to 0.1 µM at METTL3/METTL14 (setting [1]), greater than 1 µM on METTL1/WDR4, greater than 1 µM at METTL16 and 0.1 to 1 µM at PRMT5-MEP50 (setting [2]).
As to `CNc1ccc2ccc(OC[C@H]3O[C@@H](n4cc(Br)c5c(N)nc(N)nc54)[C@@H](F)[C@@H]3O)cc2n1` [I-25], the IC50 at METTL3/METTL14 (setting [1]) was 0.1 to 1 µM; at METTL1/WDR4, greater than 1 µM; on METTL16, greater than 1 µM; on PRMT5-MEP50 (setting [2]), 0.01 to 0.1 µM.
As for `Cn1ccnc1-c1ccc2ccc(OC[C@H]3O[C@@H](n4cc(Br)c5c(N)ncnc54)[C@@H](F)[C@@H]3O)cc2n1` [I-26], the IC50 was greater than 1 µM on METTL3/METTL14 (setting [1]), greater than 1 µM at METTL1/WDR4, greater than 1 µM on METTL16 and 0.1 to 1 µM at PRMT5-MEP50 (setting [2]).
Regarding `Cc1cc(N)c2ccc(OC[C@H]3O[C@@H](n4cc(Br)c5c(N)ncnc54)[C@@H](F)[C@@H]3O)cc2n1` [I-27], the results for the IC50 at METTL3/METTL14 (setting [1]), on METTL16 and on PRMT5-MEP50 (setting [2]) were 0.01 to 0.1 µM, greater than 1 µM and 0.1 to 1 µM, respectively.
Take `CN(C)Cc1cccc(OC[C@H]2O[C@@H](n3cc(Br)c4c(N)ncnc43)[C@@H](F)[C@@H]2O)c1` [I-31]: the IC50 is greater than 1 µM at METTL3/METTL14 (setting [1]), greater than 1 µM at METTL1/WDR4, greater than 1 µM at METTL16 and 0.1 to 1 µM on PRMT5-MEP50 (setting [2]).
With `CNc1ccc2ccc(OC[C@H]3O[C@@H](n4cc(C5=CCNC5)c5c(N)ncnc54)[C@@H](F)[C@@H]3O)cc2n1` [I-32], the half-maximal inhibitory concentration (IC50) at METTL3/METTL14 (setting [1]) was 0.01 to 0.1 µM; at METTL1/WDR4, greater than 1 µM; at METTL16, greater than 1 µM; at PRMT5-MEP50 (setting [2]), 0.1 to 1 µM.
Take `CNc1ccc2ccc(OC[C@H]3O[C@@H](n4cc(C5=CCN(C)CC5)c5c(N)ncnc54)[C@@H](F)[C@@H]3O)cc2n1` [I-35]: the IC50 at METTL3/METTL14 (setting [1]) was 0.01 to 0.1 µM; on METTL1/WDR4, greater than 1 µM; on METTL16, greater than 1 µM; on PRMT5-MEP50 (setting [2]) it was 0.1 to 1 µM.
